Common to all, as to assay type: cell-based
Assay [1] relates to innate soil microbes. In words: Phosphate solubilization in commercial potting soil, sterile vs non-sterile. Conditions: 12 days. As for the experimental part: In some aspects, a compound disclosed herein, e.g., AB09, stimulates phosphate solubilization of innate soil microbes. The induced phosphate solubilization enhancement was tested for in plant-free soil, which contains an innate diverse microflora of bacteria and fungi. Soil was evenly distributed into pots, half of which were pressure-sterilized in an autoclave. Half of the sterile and half of the non-sterile soil received a treatment. Control pots received a mock treatment. Pots were covered, incubated at room temperature, and orthophosphate levels were measured after twelve days. […] Three replicates of 20 mg air dried soil were measured from each pot and placed into 1.5 mL eppendorf tubes. […] In some instances, disclosed herein are measured phosphate levels at 12 days post treatment. […]
The effect of AB09 on a soil microbiome's innate ability to solubilize phosphorus was tested using commercially available soil, which contains a diverse microflora of bacteria. […] After 12 days of incubation soil phosphorus was extracted using the Bray-1P method and quantified using the malachite green assay.
Phosphate levels at 12 days post treatment. […] Orthophosphate was measured using the malachite-green phosphate method.
Orthophosphate was measured using the malachite-green phosphate method (BioAssay Systems Malachite Green Phosphate Assay Kit Catalog No: POMG-25H). […] Data are quantified on a plate reader at 620 nm. […]

For assay [2], the system named is Azotobacter vinlandii. In words: Acetylene reduction method to measure nitrogen fixation in Azotobacter vinlandii. Conditions: increasing amounts of AB09, Burks-N media, 48 h growth, dose response. The source says:
Azotobacter vinlandii is a model free-living nitrogen fixing bacteria, or diazotroph, commonly found in soils. The acetylene reduction technique was used to determine if the nitrogen fixation activity of A. vinlandii is altered due to AB09 treatment. The acetylene reduction technique relies on the non-specific activity of the nitrogenase enzyme (which is responsible for reducing atmospheric dinitrogen gas N2 to ammonia NH3), to reduce acetylene to ethylene. Acetylene and ethylene gases were detected and quantified by GC/MS.
Liquid flask cultures of A. vinlandii were grown in nitrogen-free growth media (Burks-N) and supplemented with varying amounts of AB09 (0 ug/mL culture received a mock treatment of water). Samples were analyzed for acetylene reduction to ethylene after 48 h of growth (cell concentration was normalized prior to the addition of acetylene).
Azotobacter vinlandii cultures starting from OD600=0.02 were grown in liquid N-free bacterial growth media (Burks-N) with varying amounts of AB09 shaking at 28 C. Three flasks of bacteria were grown for each concentration of AB09. After 48 h, cultures were normalized OD600=0.1 and 5 mL of the normalized culture was transferred to gas-tight autosampler vials. […] After 3 hours of incubation (with shaking at 28 C), the gas headspace of the vials was measured via GC/MS for acetylene and ethylene. […]

Assay [3] deals with Bradyrhizobium japonicum. In words: RNASeq gene expression in Bradyrhizobium japonicum. As for the experimental part:
Expression levels for all genes in a nitrogen fixing bacteria (Bradyrhizobium japonicum) were measured in the presence or absence of AB09 using Illumina RNASeq technology.

The test system of assay [4] is phosphate solubilizing bacteria (PSB). Kind of assay: Halo assay of phosphate solubilizing bacteria on agar plates containing insoluble phosphate. Conditions: AB09 treated PSB vs control treated PSB. The source says: Larger halos indicate higher microbial solubilization activity.

As to `CC1=CC(Oc2c(C)occc2=O)OC1=O` (centres unmarked) [AB09, maltol lactone], the “level of orthophosphate in non-sterile soil” value in assay [1] (24 ug/mL in 1% DMSO, 25 mL per pot, Bray-P1 extraction, vs non-sterile control) is listed as “significantly increased”. Moreover, the “AB09-induced phosphorus enhancement in sterile soil” value in assay [1] (autoclaved soil, 24 ug/mL) is reported as “not observed”. Also, the “ethylene gas from acetylene reduction (nitrogenase activity)” value in assay [2] was “increased amounts of ethylene gas”. For the same molecule, the “gene expression (Illumina RNASeq) in presence vs absence of AB09” value in assay [3] is “induced genetic regulators and pathways for nitrogen fixation and for microaerophilic growth”. Also, in assay [4], the “clearance halos around PSB colony” value is “larger clearance”.

The values above are taken from patent US12239132B2, “Compounds and methods for increasing soil nutrient availability” (SOUND AGRICULTURE COMPANY, priority 2018, dated 2025).
